Reference: US20070129320A9, “Methods and compositions for inducing innate immune responses” (Coley Pharmaceutical Group, Ltd., priority 2004, published 2007)

How the values were obtained:
[1] = system: Renca (renal carcinoma) cells; assay: Renal cell carcinoma (Renca) tumor model in mice: survival and tumor growth; details: co-administration of immune stimulating complex (ISCOMATRIX adjuvant) with ODN 7909, compared with either agent alone
Procedure: • Mice: All experiments were carried out using female BALB/c mice aged 6-8 weeks with 10 mice per experimental or control group. • Oligonucleotides: All oligonucleotides were obtained from Coley Pharmaceutical GmbH, Langenfeld, Germany. • Immune stimulating complexes: ISCOMATRIX® adjuvant, herein referred to as IMX, was the immune stimulating complex used in these Examples.
Female BALB/c mice (n=10 per group) were injected with 2×10^5 Renca (renal carcinoma) cells by SC injection into the left flank. Animals were treated with CpG 7909 alone, ISCOMATRIX® (IMX) alone or a combination of CpG 7909 and INIX administered by SC injection into the tumor perimeter weekly from day 10-28 post tumor cell injection. Control animals were injected with 100 μl of phosphate buffered saline (PBS) weekly from day 10-38 post tumor cell injection. Animals were monitored for survival (FIG. 1, panel A) and tumor growth (FIG. 1, panel B). Tumor size (length and width) was measured using a digital vernier calliper. Tumor volume was calculated by using the formula: Tumor volume=(0.4) (ab2), where a=large diameter and b=smaller diameter. In the tumor volume graph (FIG. 1, panel B), changes in average tumor volume are indicated until 50% death in each animal group.

[2] = system: murine cancer models; details: cited from earlier work

Sequence: TCGTCGTTTTGTCGTTTTGTCGTT [CpG 7909]
- survival [1]: increased survival
- tumor growth [1]: controlled tumor growth better than did either agent alone
- anti-tumor effects ([2]; several murine cancer models, demonstrated previously): demonstrated previously
- effect on anti-tumor effects of chemotherapeutic drugs ([2]; shown previously): augment the anti-tumor effects of some chemotherapeutic drugs
